Test [1] relates to RUNX2. In words: RUNX2 protein expression by Western blot in hepatoma cells BEL-7402. Type of test: cell-based. The note with it: BEL-7402 cells, 0, 2.5, 5 and 10 uM for 6 h, FIG. 5. As to the method: (§1) Cells are seeded in medium dishes (6 cm), cultured overnight, when the cell confluency is 80%, the original medium is discarded, PBS rinses the cells, and then replaced with Fostamatinib containing a final concentration of 10 uM or other concentrations, after 6-12 hours, the cells are harvested, RNA and protein liquid are extracted, and the protein and mRNA expression changes of RUNX2 are detected by Western blot and qPCR experiments, respectively.
(In general: Immunoblotting shows a protein as a band on a membrane.)

The test system of test [2] is RUNX2 mRNA. Put plainly: RUNX2 mRNA expression by qPCR in lung cancer cell H1299. The note with it: H1299 cells. Type of test: cell-based. As to the method: as §1
On the technique in general: In qPCR the cycle at which signal appears reflects the starting amount.

Test [3] deals with RUNX2 mRNA. In words: RUNX2 mRNA expression by qPCR in lung cancer cells A549. The format is cell-based. As to the method:
as §1

The subject of test [4] is RUNX2 mRNA. Put plainly: Animal testing (intraperitoneal injection): RUNX2 mRNA in mouse liver tissue by qPCR. Type of test: in vivo, C57BL/6 male mice. The note with it: mice, 40 mg/kg intraperitoneal injection, 4 consecutive days, liver collected 48 hours after last injection, FIG. 6. As for the experimental part:
• Drug: Fostamatinib MCE(HY-13038A) • Mice: 8-week-old C57BL/6 male mice • Concentration of administration: 40 mg/kg • Mode of administration: intraperitoneal injection
Experimental steps: mice are randomly divided into two groups, experimental group (fostamatinib) and control group (mock), before daily experiments, a certain amount of fostamatinib is accurately weighted and dissolve in 0.5% CMC ([…] cellulose), fully pipetted into a uniform suspension, the concentration of 4 mg/ml, and ready for use. According to the injection volume of 100 ul/10 g per mouse, the intraperitoneal injection was carried out for 4 consecutive days. The mouse liver tissue was collected 48 hours after the last injection, RNA was extracted, and the mRNA expression level of RUNX2 was detected by real-time fluorescence quantitative PCR (qPCR).

Test [5] deals with RUNX2. In words: RUNX2 protein expression by Western blot in lung cancer cell H1299. The format is cell-based. The note with it: H1299 cells. As for the experimental part:
as §1

The subject of test [6] is RUNX2. In words: RUNX2 protein expression by Western blot in lung cancer cells A549. Type of test: cell-based. As to the method:
as §1

Test [7] deals with RUNX2. In words: Computational studies and preliminary experimental studies of related disease models: Runx2 expression. Particulars: general statement.
Setting [8] is: treated 8 hours, Fostamatinib 10 uM or other concentrations, FIG. 2.
[9] abbreviates: treated 6 hours, antibody changed, FIG. 3.
The mark [10] stands for this setting: treated 8 hours, Fostamatinib 10 uM or other concentrations, FIG. 1.

`COc1cc(Nc2ncc(F)c(Nc3ccc4c(n3)N(COP(=O)(O)O)C(=O)C(C)(C)O4)n2)cc(OC)c1OC` [Fostamatinib]: the “expression level of RUNX2 protein” value in the test with RUNX2 [1] was “significantly reduced and dose-dependent”. Further, the “mRNA level of RUNX2” value was “significantly reduced” in the test on RUNX2 mRNA [2] (6 hours, FIG. 4) and “significantly reduced” in the test on RUNX2 mRNA [3] (6 hours, FIG. 4). Moreover, the “mRNA expression level of RUNX2” value in the test with RUNX2 mRNA [2] (setting [8]) and in the test with RUNX2 mRNA [3] (setting [8]) was “decreases significantly” in each case. Besides, the “mRNA expression level of RUNX2 in liver tissue” value in the test on RUNX2 mRNA [4] is given as “significantly reduce”. Moreover, the “protein expression level of RUNX2” value with RUNX2 [5] (setting [9]) is on record as “down-regulated a certain trend”; in the test with RUNX2 [5] (setting [10]) it was “tends to decrease”; in the test on RUNX2 [6] (setting [9]) it was “down-regulated a certain trend”; with RUNX2 [6] (setting [10]) it was “tends to decrease”. Moreover, in the test with RUNX2 [7], the “expression of Runx2” value is “significantly down-regulate”.

For `CNC(=O)c1cc(Oc2ccc(NC(=O)Nc3ccc(Cl)c(C(F)(F)F)c3)c(F)c2)ccn1` [Regorafenib], the “expression of Runx2” value in the test on RUNX2 [7] is “significantly down-regulate”.

Take `COc1ccc2[nH]cc(CCNC(C)=O)c2c1` [melatonin, Melatonin]: the “expression of Runx2” value in the test on RUNX2 [7] is given as “significantly down-regulate”.
